Measured values: ChEMBL document CHEMBL3885881, “DrugMatrix”

Species: Rattus norvegicus
Assay: DrugMatrix - Regimen: Daily Repeat
Type: toxicity, organism-based, Sprague-Dawley
Parameters: regimen Daily Repeat, gender Male, age 6-8 weeks
Conditions: in vivo, po, route oral GAVAGE, vehicle 100 % WATER; for ABSOLUTE BASOPHIL / ABSOLUTE EOSINOPHIL / ABSOLUTE LYMPHOCYTE / ABSOLUTE MONOCYTE / ABSOLUTE SEGMENTED NEUTROPHIL / BASOPHIL / EOSINOPHIL / ERYTHROCYTE COUNT / HEMATOCRIT / HEMOGLOBIN / LEUKOCYTE COUNT / LYMPHOCYTE / MEAN CORPUSCULAR HEMOGLOBIN / MEAN CORPUSCULAR HEMOGLOBIN CONCENTRATION / MEAN CORPUSCULAR VOLUME / MONOCYTE / NEUTROPHIL / NUCLEATED RED BLOOD CELLS / PLATELET COUNT: tissue Blood; for ALANINE AMINOTRANSFERASE / ALBUMIN / ALKALINE PHOSPHATASE / ASPARTATE AMINOTRANSFERASE / BLOOD UREA NITROGEN / CARBON DIOXIDE / CHLORIDE / CHOLESTEROL / CREATINE PHOSPHOKINASE / CREATININE / GLUCOSE / LACTATE DEHYDROGENASE / LIPASE / PHOSPHORUS / POTASSIUM / SODIUM / TOTAL BILIRUBIN / TOTAL PROTEIN / URIC ACID: tissue Plasma
[1] = 0 mg/kg, 72 h, dose level Control, time 3 day
[2] = 0 mg/kg, 120 h, dose level Control, time 5 day
[3] = 60 mg/kg, 72 h, dose level Low, time 3 day
[4] = 60 mg/kg, 120 h, dose level Low, time 5 day

ClC(Cl)Cl [CHLOROFORM]
ABSOLUTE BASOPHIL [1]: 0 CELLS/uL
ABSOLUTE EOSINOPHIL [1]: 86.33 CELLS/uL
ABSOLUTE LYMPHOCYTE [1]: 12090.17 CELLS/uL
ABSOLUTE MONOCYTE [1]: 166.67 CELLS/uL
ABSOLUTE SEGMENTED NEUTROPHIL [1]: 1090.17 CELLS/uL
BASOPHIL [1]: 0%
EOSINOPHIL [1]: 0.67%
ERYTHROCYTE COUNT [1]: 5.57 x10E6/uL
HEMATOCRIT [1]: 35.33%
HEMOGLOBIN [1]: 13.83 G/DL
LEUKOCYTE COUNT [1]: 13.43 x10E3/uL
LYMPHOCYTE [1]: 89.83%
MEAN CORPUSCULAR HEMOGLOBIN [1]: 24.88 pg
MEAN CORPUSCULAR HEMOGLOBIN CONCENTRATION [1]: 39.15 G/DL
MEAN CORPUSCULAR VOLUME [1]: 63.52 fL
MONOCYTE [1]: 1.17%
NEUTROPHIL [1]: 8.33%
NUCLEATED RED BLOOD CELLS [1]: 0 /100WBC
PLATELET COUNT [1]: 1181.33 x10E3/uL
ALANINE AMINOTRANSFERASE [1]: 48.33 u/L
ALBUMIN [1]: 4.1 G/DL
ALKALINE PHOSPHATASE [1]: 395 u/L
ASPARTATE AMINOTRANSFERASE [1]: 81.83 u/L
BLOOD UREA NITROGEN [1]: 15.83 mg/dL
CARBON DIOXIDE [1]: 24.17 mmol/L
CHLORIDE [1]: 103.83 MEQ/L
CHOLESTEROL [1]: 63.67 mg/dL
CREATINE PHOSPHOKINASE [1]: 372.83 u/L
CREATININE [1]: 0.18 mg/dL
GLUCOSE [1]: 173.83 mg/dL
LACTATE DEHYDROGENASE [1]: 188.33 u/L
LIPASE [1]: 9.5 u/L
PHOSPHORUS [1]: 11.95 mg/dL
POTASSIUM [1]: 5.99 MEQ/L
SODIUM [1]: 144.43 MEQ/L
TOTAL BILIRUBIN [1]: 0.15 mg/dL
TOTAL PROTEIN [1]: 5.95 G/DL
URIC ACID [1]: 1.82 mg/dL
ABSOLUTE BASOPHIL [2]: 0 CELLS/uL
ABSOLUTE EOSINOPHIL [2]: 26.67 CELLS/uL
ABSOLUTE LYMPHOCYTE [2]: 7583.83 CELLS/uL
ABSOLUTE MONOCYTE [2]: 131.33 CELLS/uL
ABSOLUTE SEGMENTED NEUTROPHIL [2]: 674.83 CELLS/uL
BASOPHIL [2]: 0%
EOSINOPHIL [2]: 0.33%
ERYTHROCYTE COUNT [2]: 5.78 x10E6/uL
HEMATOCRIT [2]: 36.48%
HEMOGLOBIN [2]: 14.03 G/DL
LEUKOCYTE COUNT [2]: 8.42 x10E3/uL
LYMPHOCYTE [2]: 89.83%
MEAN CORPUSCULAR HEMOGLOBIN [2]: 24.3 pg
MEAN CORPUSCULAR HEMOGLOBIN CONCENTRATION [2]: 38.52 G/DL
MEAN CORPUSCULAR VOLUME [2]: 63.15 fL
MONOCYTE [2]: 1.67%
NEUTROPHIL [2]: 8.17%
NUCLEATED RED BLOOD CELLS [2]: 0 /100WBC
PLATELET COUNT [2]: 1186.67 x10E3/uL
ALANINE AMINOTRANSFERASE [2]: 50.17 u/L
ALBUMIN [2]: 4.07 G/DL
ALKALINE PHOSPHATASE [2]: 367.5 u/L
ASPARTATE AMINOTRANSFERASE [2]: 81.67 u/L
BLOOD UREA NITROGEN [2]: 16.17 mg/dL
CARBON DIOXIDE [2]: 32.33 mmol/L
CHLORIDE [2]: 101.5 MEQ/L
CHOLESTEROL [2]: 65.33 mg/dL
CREATINE PHOSPHOKINASE [2]: 255.33 u/L
CREATININE [2]: 0.17 mg/dL
GLUCOSE [2]: 139.33 mg/dL
LACTATE DEHYDROGENASE [2]: 95 u/L
LIPASE [2]: 10.5 u/L
PHOSPHORUS [2]: 10.38 mg/dL
POTASSIUM [2]: 6.11 MEQ/L
SODIUM [2]: 145.55 MEQ/L
TOTAL BILIRUBIN [2]: 0.17 mg/dL
TOTAL PROTEIN [2]: 5.98 G/DL
URIC ACID [2]: 0.93 mg/dL
ABSOLUTE BASOPHIL [3]: 0 CELLS/uL
ABSOLUTE EOSINOPHIL [3]: 102.33 CELLS/uL
ABSOLUTE LYMPHOCYTE [3]: 13682.67 CELLS/uL
ABSOLUTE MONOCYTE [3]: 170.33 CELLS/uL
ABSOLUTE SEGMENTED NEUTROPHIL [3]: 1778 CELLS/uL
BASOPHIL [3]: 0%
EOSINOPHIL [3]: 0.67%
ERYTHROCYTE COUNT [3]: 5.57 x10E6/uL
HEMATOCRIT [3]: 35.2%
HEMOGLOBIN [3]: 13.87 G/DL
LEUKOCYTE COUNT [3]: 15.73 x10E3/uL
LYMPHOCYTE [3]: 86.67%
MEAN CORPUSCULAR HEMOGLOBIN [3]: 24.87 pg
MEAN CORPUSCULAR HEMOGLOBIN CONCENTRATION [3]: 39.37 G/DL
MEAN CORPUSCULAR VOLUME [3]: 63.2 fL
MONOCYTE [3]: 1%
NEUTROPHIL [3]: 11.67%
NUCLEATED RED BLOOD CELLS [3]: 0 /100WBC
PLATELET COUNT [3]: 1237 x10E3/uL
ALANINE AMINOTRANSFERASE [3]: 53 u/L
ALBUMIN [3]: 3.97 G/DL
ALKALINE PHOSPHATASE [3]: 363.67 u/L
ASPARTATE AMINOTRANSFERASE [3]: 98.67 u/L
BLOOD UREA NITROGEN [3]: 15.33 mg/dL
CARBON DIOXIDE [3]: 23.33 mmol/L
CHLORIDE [3]: 103.33 MEQ/L
CHOLESTEROL [3]: 70.67 mg/dL
CREATINE PHOSPHOKINASE [3]: 579.33 u/L
CREATININE [3]: 0.13 mg/dL
GLUCOSE [3]: 155.67 mg/dL
LACTATE DEHYDROGENASE [3]: 507.67 u/L
LIPASE [3]: 9 u/L
PHOSPHORUS [3]: 12.8 mg/dL
POTASSIUM [3]: 5.78 MEQ/L
SODIUM [3]: 143.9 MEQ/L
TOTAL BILIRUBIN [3]: 0.2 mg/dL
TOTAL PROTEIN [3]: 5.67 G/DL
URIC ACID [3]: 1.83 mg/dL
ABSOLUTE BASOPHIL [4]: 0 CELLS/uL
ABSOLUTE EOSINOPHIL [4]: 47.67 CELLS/uL
ABSOLUTE LYMPHOCYTE [4]: 10405 CELLS/uL
ABSOLUTE MONOCYTE [4]: 114.67 CELLS/uL
ABSOLUTE SEGMENTED NEUTROPHIL [4]: 899.33 CELLS/uL
BASOPHIL [4]: 0%
EOSINOPHIL [4]: 0.33%
ERYTHROCYTE COUNT [4]: 6.07 x10E6/uL
HEMATOCRIT [4]: 37.63%
HEMOGLOBIN [4]: 14.23 G/DL
LEUKOCYTE COUNT [4]: 11.47 x10E3/uL
LYMPHOCYTE [4]: 90%
MEAN CORPUSCULAR HEMOGLOBIN [4]: 23.5 pg
MEAN CORPUSCULAR HEMOGLOBIN CONCENTRATION [4]: 37.87 G/DL
MEAN CORPUSCULAR VOLUME [4]: 62.07 fL
MONOCYTE [4]: 1%
NEUTROPHIL [4]: 8.67%
NUCLEATED RED BLOOD CELLS [4]: 0 /100WBC
PLATELET COUNT [4]: 1244.67 x10E3/uL
ALANINE AMINOTRANSFERASE [4]: 54.33 u/L
ALBUMIN [4]: 4.27 G/DL
ALKALINE PHOSPHATASE [4]: 299.67 u/L
ASPARTATE AMINOTRANSFERASE [4]: 84.33 u/L
BLOOD UREA NITROGEN [4]: 16 mg/dL
CARBON DIOXIDE [4]: 30.67 mmol/L
CHLORIDE [4]: 102 MEQ/L
CHOLESTEROL [4]: 59.67 mg/dL
CREATINE PHOSPHOKINASE [4]: 401 u/L
CREATININE [4]: 0.22 mg/dL
GLUCOSE [4]: 139.33 mg/dL
LACTATE DEHYDROGENASE [4]: 140 u/L
LIPASE [4]: 10 u/L
PHOSPHORUS [4]: 10.83 mg/dL
